Measurements as given in patent publication US10946074B2, “GLP-1 derivatives and uses thereof” (Novo Nordisk A/S, priority 2016, dated 2021).

Biological target: T1, DPP-IV (Homo sapiens, UniProt P27487)
T1 construct: purchased R & D systems
Assay: In vitro DPP-IV stability (incubation with DPP-IV, LC-MS of non-degraded peptide)
Format: in vitro ADME
Settings: 10 μM peptide, DPP-IV 2 μg/ml, 37° C., samples up to 180 min
Protocol: The peptides are incubated in vitro in buffer with DPP-IV, samples are taken at regular intervals, the DPP-IV enzyme is inactivated to stop further degradation, and the amount of non-degraded peptide in the samples is determined using LC-MS.
Buffer A is a HEPES buffer (Gibco by Life Science, NY, USA) to which 0.005% (v/v) Tween20® Sigma-Aldrich, USA) and 0.001% (w/v) BSA (Sigma-Aldrich, USA) has been added and pH was adjusted to 7.4.
LC-MS was performed on a setup consisting of Waters Acquity UPLC system and Maxis 4G from Bruker Daltonics. […] Gradient: Linear 5%-70% mobile phase B during 8 min at 0.3 ml/min. MS was conducted in positive ionisation mode by electrospray ionisation from m/z ionisation mode and scan from m/z 300-1800.
The reactions were terminated by addition of 6 volumes of ethanol containing 1% (v/v) TFA (Biosolve BV, The Netherlands) and internal standard. The samples were analysed by LC-MS for the respective non-degraded peptide. Data was plotted according to 1st order kinetics (by GraphPad Prism) and the half-lives (T1/2) were calculated by the software and reported in minutes.

T1 sequence (P27487 whole entry, species assumed): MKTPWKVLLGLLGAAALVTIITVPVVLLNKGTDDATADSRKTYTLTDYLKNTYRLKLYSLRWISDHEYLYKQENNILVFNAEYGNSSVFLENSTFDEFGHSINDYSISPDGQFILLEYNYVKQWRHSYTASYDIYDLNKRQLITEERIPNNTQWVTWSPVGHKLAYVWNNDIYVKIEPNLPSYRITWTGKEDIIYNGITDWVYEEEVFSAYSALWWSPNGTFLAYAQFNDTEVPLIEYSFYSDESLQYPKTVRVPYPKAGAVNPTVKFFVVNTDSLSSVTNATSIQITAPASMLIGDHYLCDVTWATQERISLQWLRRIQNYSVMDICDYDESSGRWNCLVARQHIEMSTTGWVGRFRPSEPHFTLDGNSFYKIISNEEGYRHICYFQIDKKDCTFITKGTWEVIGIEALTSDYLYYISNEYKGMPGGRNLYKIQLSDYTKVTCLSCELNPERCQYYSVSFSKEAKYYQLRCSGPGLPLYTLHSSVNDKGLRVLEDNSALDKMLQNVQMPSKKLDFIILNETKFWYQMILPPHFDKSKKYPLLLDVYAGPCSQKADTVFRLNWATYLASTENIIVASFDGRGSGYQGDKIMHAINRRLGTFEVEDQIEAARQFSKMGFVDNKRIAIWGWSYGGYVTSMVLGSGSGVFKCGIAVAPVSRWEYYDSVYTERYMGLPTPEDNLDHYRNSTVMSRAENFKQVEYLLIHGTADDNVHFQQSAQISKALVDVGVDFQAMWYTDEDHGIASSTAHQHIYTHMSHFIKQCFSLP

With `CC[C@H](C)[C@H](NC(=O)[C@H](Cc1ccccc1)NC(=O)[C@H](CCC(=O)O)NC(=O)[C@H](CCCCN)NC(=O)[C@H](C)NC(=O)[C@H](C)NC(=O)[C@H](CCC(N)=O)NC(=O)CNC(=O)[C@H](CCC(=O)O)NC(=O)[C@H](CC(C)C)NC(=O)[C@H](Cc1ccc(O)cc1)NC(=O)[C@H](CO)NC(=O)[C@H](CO)NC(=O)[C@@H](NC(=O)[C@H](CC(=O)O)NC(=O)[C@H](CO)NC(=O)[C@@H](NC(=O)[C@H](Cc1ccccc1)NC(=O)[C@@H](NC(=O)CNC(=O)[C@H](CCC(=O)O)NC(=O)[C@H](Cc1c[nH]c2ccccc12)NC(=O)[C@@H](N)Cc1c[nH]cn1)[C@@H](C)O)[C@@H](C)O)C(C)C)C(=O)N[C@@H](C)C(=O)N[C@@H](Cc1c[nH]c2ccccc12)C(=O)N[C@@H](CC(C)C)C(=O)N[C@H](C(=O)N[C@@H](CCCCN)C(=O)NCC(=O)N[C@@H](CCCNC(=N)N)C(=O)NCC(=O)O)C(C)C` [Example D, [Trp8]-GLP-1-(7-37)-Peptide] as the molecule, how does the “degradation by DPP-IV in vitro (in words)” value read?
The value was “no degradation at all was observed”.
